Measured values taken from patent publication US9956301B2, “Complex of garcinol, cyclodextrin and method thereof” (Indus Biotech Private Limited, priority 2010, dated 2018).
Like-named read-outs stand apart in the source and are kept apart here.

Key:
[1] = tested on: Doxorubicin induced cardiac dysfunction; format: in vivo; settings: rats, Doxorubicin Control = Doxorubicin alone, Mean ± SEM; for Glutathione / Lipid Peroxidation: heart tissue, Test Molecule 20 mg/kg p.o. + Doxorubicin 10 mg/kg i.v., n = 4; for Diastolic Blood Pressure / Mean Arterial Blood Pressure / Systolic Blood Pressure: Test Molecule 20 mg/kg p.o. 18 days + Doxorubicin 10 mg/kg i.v. day 16; for Diastolic Blood Pressure / Mean Arterial Blood Pressure / Systolic Blood Pressure / Difference in Heart Rate / Difference in QT interval / Difference in ST interval: n = 6; for Difference in Heart Rate / Difference in QT interval / Difference in ST interval: pretreatment p.o. 18 days (Test Molecule 20 mg/kg) + Doxorubicin 10 mg/kg i.v. day 16
Experimental: Male Wistar rats were pretreated with 20 mg/kg (p.o.) of test molecule for 18 days. On day 16, Doxorubicin at a dose of 10 mg/kg (i.v.) was administered intravenously. On day 18, animals were sacrificed. […] It also induces significant prolongation of QT and ST intervals. Significant reduction of mean arterial blood pressure, systolic and diastolic blood pressures were observed. Elevated oxidative stress on the heart was also seen from increased lipid peroxidation and decreased glutathione (GSH) concentrations.

[2] = tested on: cardiac dysfunction induced by chronic Doxorubicin administration; assay: Effect of test molecule in chronic administration of Doxorubicin; format: in vivo, Male Wistar rats; settings: for Cytoplasmic Eosinophilia / Cytoplasmic vacuoles / Inflammation / Myocardial necrosis / Vascular congestion: heart histopathology, day 30, chronic Doxorubicin, Test Molecule 20 mg/kg; for Cytoplasmic Eosinophilia / Cytoplasmic vacuoles / Inflammation / Myocardial necrosis / Vascular congestion / Glutathione / Lipid Peroxidation: n = 4; for Glutathione / Lipid Peroxidation: heart tissue, Test Molecule 20 mg/kg p.o. 30 days + chronic Doxorubicin; for Glutathione / Lipid Peroxidation / Diastolic Blood Pressure / Mean Arterial Blood Pressure / Systolic Blood Pressure / Difference in Heart Rate / Difference in QT interval / Difference in QTc interval / Difference in ST interval: rats, Doxorubicin Control = Doxorubicin alone, Mean ± SEM; for Diastolic Blood Pressure / Mean Arterial Blood Pressure / Systolic Blood Pressure: Test Molecule 20 mg/kg p.o. 30 days + chronic Doxorubicin 3 mg/kg x 5; for Diastolic Blood Pressure / Mean Arterial Blood Pressure / Systolic Blood Pressure / Difference in Heart Rate / Difference in QT interval / Difference in QTc interval / Difference in ST interval: n = 6; for Difference in Heart Rate / Difference in QT interval / Difference in QTc interval / Difference in ST interval: pretreatment p.o. 30 days (Test Molecule 20 mg/kg) + Doxorubicin 3 mg/kg on days 1, 7, 14, 21, 28
Experimental: Male Wistar rats were pretreated with 20 mg/kg (p.o.) of test molecule for 30 days. On days 1, 7, 14, 21 and 28, Doxorubicin at a dose of 3 mg/kg […] was administered intravenously. On Day 30, animals were sacrificed for histopathological examination of the heart.

[3] = tested on: Digitalis induced cardiac dysfunction; assay: Cardioprotective activity of test molecule in Digitalis induced cardiac dysfunction; format: in vivo, Male Wistar rats
Experimental: Male Wistar rats were pretreated with 20 mg/kg (p.o.) of test molecule for 18 days. On Day 18, Digitalis at a three doses of 500 […] was administered intravenously with interval period of 15 min. After this, 200 […] was administered every 15 min continued upto cardiac arrest. Histopathological examination of the heart was conducted.

[4] = Water solubility of Garcinol and test molecule; format: physicochemical; settings: room temperature
Source text: Garcinol is insoluble in water at room temperature.

[5] = tested on: Doxorubicin induced cardiac dysfunction; assay: Activity of Garcinol against Doxorubicin induced cardiac dysfunction; format: in vivo; settings: rats; for Glutathione / Lipid Peroxidation: heart tissue, Garcinol 100 mg/kg p.o. + Doxorubicin 10 mg/kg i.v., n = 4
Experimental: Male Wistar rats were pretreated with Garcinol at 10, 25, 50, 100 and 200 mg/kg (p.o.) for 18 days. On day 16, Doxorubicin at a dose of 10 mg/kg (i.v.) was administered intravenously. On day 18, animals were sacrificed. […] Elevated oxidative stress on the heart was also seen from increased lipid peroxidation and decreased glutathione (GSH) concentrations.

[6] = tested on: Isoproterenol induced cardiac dysfunction; assay: Cardioprotective activity of test molecule in Isoproterenol induced cardiac dysfunction; format: in vivo, Male Wistar rats; settings: rats, Isoproterenol Control = Isoproterenol alone, Mean ± S.E.M.
Experimental: Male Wistar rats were pretreated with 20 mg/kg (p.o.) of test molecule 18 days. From Day 9, Isoproterenol at a dose of 1 mg/kg/day was administered intravenously for 10 days. Isoproterenol administration induced significant changes to the QT and ST interval. Isoproterenol induced oxidative stress was observed by decreased Glutathione (GSH) and increased lipid peroxidation concentrations in the heart.

[7] = heart histopathology, Digitalis induced cardiac dysfunction, n = 4
[8] = rats, test molecule 20 mg/kg p.o. 18 days + Digitalis i.v., Digitalis Control = Digitalis alone, Mean ± S.E.M, n = 4
[9] = rats, test molecule 20 mg/kg p.o. 18 days, then Digitalis i.v. every 15 min up to cardiac arrest, Digitalis Control = Digitalis alone, Mean ± S.E.M., n = 6
[10] = Doxorubicin Control = Doxorubicin alone, Mean ± SEM
[11] = Garcinol 100 mg/kg p.o. 18 days + Doxorubicin 10 mg/kg i.v. day 16, Doxorubicin Control = Doxorubicin alone, Mean ± SEM, n = 6
[12] = heart tissue, Test Molecule 20 mg/kg + Isoproterenol, n = 4
[13] = test molecule 20 mg/kg p.o. 18 days + Isoproterenol 1 mg/kg/day i.v. 10 days from Day 9, n = 5

Compound	Glutathione [1]	Lipid Peroxidation [1]	Diastolic Blood Pressure [1] [mm Hg]	Mean Arterial Blood Pressure [1] [mm Hg]	Systolic Blood Pressure [1] [mm Hg]	Difference in Heart Rate [1] [bpm]	Difference in QT interval [1] [s]	Difference in ST interval [1] [s]	Cytoplasmic Eosinophilia [2]	Cytoplasmic vacuoles [2]	Inflammation [2]	Myocardial necrosis [2]	Vascular congestion [2]	Glutathione [2]	Lipid Peroxidation [2]	Diastolic Blood Pressure [2] [mm Hg]	Mean Arterial Blood Pressure [2] [mm Hg]	Systolic Blood Pressure [2] [mm Hg]	Difference in Heart Rate [2] [bpm]	Difference in QT interval [2] [s]	other results
Cyclodextrin	16.76 ± 0.4971 μg/mg of protein	4.056 ± 0.2880 nmol of MDA/mg of Protein	76.83 ± 1.709	89.26 ± 2.357	89.88 ± 4.507	−34.87 ± 6.935	0.0225 ± 0.00091	0.014 ± 0.001025	++ ((++) 30-60% of cells show changes)	++ ((++) 30-60% of cells show changes)	+++ ((+++) 60-90% of cells show changes)	+++ ((+++) 60-90% of cells show changes)	++ ((++) 30-60% of cells show changes)	15.15 ± 0.6584 μg/mg of protein	4.700 ± 0.6126 nmol of MDA/mg of Protein	80.00 ± 2.298	88.04 ± 1.813	92.22 ± 2.275	−66.22 ± 8.303	0.015 ± 0.00437	Difference in QTc interval [2]: 0.033 ± 0.0092 s; Difference in ST interval [2]: 0.016 ± 0.0022 s
Digitalis	–	–	–	–	–	–	–	–	–	–	–	–	–	–	–	–	–	–	–	–	Cytoplasmic Eosinophilia [3, 7]: ++ ((++) 30-60% of cells show changes); Cytoplasmic vacuoles [3, 7]: ++ ((++) 30-60% of cells show changes); Inflammation [3, 7]: +++ ((+++) 60-90% of cells show changes); Myocardial necrosis [3, 7]: +++ ((+++) 60-90% of cells show changes); Vascular congestion [3, 7]: ++ ((++) 30-60% of cells show changes); Glutathione [3, 8]: 21.01 ± 0.5369 μg/mg of protein; Lipid Peroxidation [3, 8]: 6.909 ± 0.4459 nmol of MDA/mg of Protein; Dose of Digitalis required for inducing Arterial Fibrillation [3, 9]: 2.933 ± 0.2333 mg/kg; Dose of Digitalis required for inducing Cardiac Arrest [3, 9]: 3.067 ± 0.2801 mg/kg; Dose of Digitalis required for inducing Ectopic Beats [3, 9]: 2.7 ± 0.2129 mg/kg
C=C(C)[C@@H](CC=C(C)C)C[C@@]12C[C@@H](CC=C(C)C)C(C)(C)[C@@](CC=C(C)C)(C(=O)C(C(=O)c3ccc(O)c(O)c3)=C1O)C2=O [Garcinol]	–	–	–	–	–	–	–	–	–	–	–	–	–	–	–	–	–	–	–	–	Water solubility [4]: insoluble; Animal mortality / toxicity (in words) ([5]; Garcinol 100 to 200 mg/kg p.o., Doxorubicin 10 mg/kg i.v.): animal mortality was observed; Glutathione [5, 10]: 22.05 ± 1.031 μg/mg of protein; Lipid Peroxidation [5, 10]: 1.69 ± 0.04 nmol of MDA/mg of Protein
COc1cccc2c1C(=O)c1c(O)c3c(c(O)c1C2=O)C[C@@](O)(C(=O)CO)C[C@@H]3O[C@H]1C[C@H](N)[C@H](O)[C@H](C)O1 [Doxorubicin]	17.29 ± 0.4496 μg/mg of protein	4.160 ± 0.3427 nmol of MDA/mg of Protein	75.96 ± 3.611	89.26 ± 1.837	89.44 ± 5.108	−33.67 ± 15.96	0.0229 ± 0.00206	0.015 ± 0.001497	+++ ((+++) 60-90% of cells show changes)	++ ((++) 30-60% of cells show changes)	+++ ((+++) 60-90% of cells show changes)	+++ ((+++) 60-90% of cells show changes)	++ ((++) 30-60% of cells show changes)	15.05 ± 0.8970 μg/mg of protein	4.631 ± 0.3671 nmol of MDA/mg of Protein	82.81 ± 1.997	86.67 ± 0.9226	92.59 ± 1.728	−64.59 ± 12.13	0.015 ± 0.00087	Number of Animals Deaths ([5]; Doxorubicin Control: Doxorubicin 10 mg/kg i.v. day 16 alone): 0/6; Glutathione [5, 10]: 16.10 ± 1.17 μg/mg of protein; Lipid Peroxidation [5, 10]: 4.56 ± 0.47 nmol of MDA/mg of Protein; Difference in Heart Rate [5, 11]: −77.5 ± 19.63 bpm; Difference in QT interval [5, 11]: 0.014 ± 0.0035 s; Difference in ST interval [5, 11]: 0.0085 ± 0.0048 s; Difference in QTc interval [2]: 0.035 ± 0.0046 s; Difference in ST interval [2]: 0.016 ± 0.0015 s
CC(C)NCC(O)c1ccc(O)c(O)c1 (stereo not shown) [Isoproterenol]	–	–	–	–	–	–	–	–	–	–	–	–	–	–	–	–	–	–	–	–	Glutathione [6, 12]: 19.02 ± 0.8526 μg/mg of protein; Lipid Peroxidation [6, 12]: 4.443 ± 0.0392 nmol of MDA/mg of Protein; Difference in Heart Rate [6, 13]: 43.66 ± 6.267 bpm; Difference in QT interval [6, 13]: 0.01686 ± 0.002 s; Difference in ST interval [6, 13]: 0.0180 ± 0.0009 s; Mean Arterial Blood Pressure [6, 13]: 72.45 ± 5.942 mm Hg
